Data from patent US20200131196A1 (Mount Tam Therapeutics, Inc., priority 2017, published 2020).
Several values for one entry are separate records, joined by “and”; a condition that tells them apart may be missing. Equal values may be shown once. Read-outs that look alike come from different tables or passages of the source.

Key:
[1] = Whole blood concentrations in mice after IP dosing (LC-MS/MS); type: in vivo, mouse; settings: for approximate mean concentration in whole blood: up to six hours following administration
Method: Shown below are whole blood concentrations following administration of the compound of Formula II to mice. The compound of Formula II was administered to mice at 2 mg/kg or 10 mg/kg and the concentration of the compound in whole blood determined. These determinations were made using protein precipitation, liquid chromatography (LC), and mass spectrometry (MS/MS). Ten μl aliquots of whole blood and matrix calibration standards were distributed in a 96-well plate; 10 μl aliquots of blank matrix for matrix blanks and control blanks were included as controls. Ten μl of water was added to each sample followed by vortexing. One hundred sixty […] of internal standard was added to each sample except the matrix blanks; 160 μl 70:30 water:acetonitrile (ACN) was added to matrix blanks. This was followed by a […]. One hundred fifty μl of the resultant supernatant was then transferred to a new 96-well plate and the samples blown to dryness at 35° C. The resultant product was then reconstituted with 90 μl ACN.

[2] = tested on: RKOE6; test: OncoPanel cell proliferation assay, RKOE6
Method: Cells were seeded into 384-well plates and incubated in a humidified atmosphere of 5% CO2 at 37° C. Compounds were added the day following cell seeding. At the same time, a time zero untreated cell plate was generated. After a 3-day incubation period, cells were fixed and stained to allow fluorescence imaging of nuclei. Compounds (1 mM stock solutions) were serially diluted in half-log steps from the highest test concentration (1 micromol), and assayed over 10 concentrations with a maximum assay concentration of 0.1% DMSO. Automated fluorescence microscopy was carried out using a Molecular Devices ImageXpress Micro XL high-content imager, and images were collected with a 4× objective. 16-bit TIFF images were acquired and analyzed with MetaXpress 5.1.0.41 software.
Cell proliferation was measured by the fluorescence intensity of an incorporated nuclear dye. The output is referred to as the relative cell count, where the measured nuclear intensity is transformed to percent of control (POC) using the following formula:
Cellular response parameters were calculated using nonlinear regression to a sigmoidal single-site dose response model:
GI50 is the concentration needed to reduce the observed growth by half (midway between the curve maximum and the time zero value). […] In rare instances, values <0 or >10 may be observed. […] Curve-fitting, calculations, and report generation was performed using a custom data reduction engine and MathIQ based software (AIM).

For `CO[C@H]1C[C@@H]2CC[C@@H](C)[C@@](O)(O2)C(=O)C(=O)N2CCCC[C@H]2C(=O)O[C@H]([C@H](C)C[C@H]2C[C@H]3C[C@@H]2C[C@@H]3O)CC(=O)[C@H](C)/C=C(\C)[C@@H](O)[C@@H](OC)C(=O)[C@H](C)C[C@H](C)/C=C/C=C/C=C/1C` [Formula II, C37-[(1R,2S,4R,5S)-5-hyhroxybicyclo[2.2.1]heptane] rapamycin], the “Formula II Concentrations in Mouse Whole Blood, Mean” value (from here on “Formula II Concentrations … Mean”) ([1]; 2 mg/kg IP QD × 3 days, Day 3, 6.00 hrs) was 588 ng/mL, the “Formula II Concentrations in Mouse Whole Blood, individual animals” value (from here on “Formula II Concentrations … individual animals”) ([1]; 2 mg/kg IP QD × 3 days, Day 3, 6.00 hrs, animals 7, 8, 9) was 416 ng/mL and 745 ng/mL and 604 ng/mL and the “Formula II Concentrations … Mean” value ([1]; 2 mg/kg IP QD × 3 days, Day 3, 24.0 hrs) was 41.9 ng/mL. The “Formula II Concentrations … individual animals” value ([1]; 2 mg/kg IP QD × 3 days, Day 3, 24.0 hrs, animals 7, 8, 9) was 17.6 ng/mL and 59.6 ng/mL and 48.6 ng/mL, the “concentrations in whole blood over time (in words)” value ([1]; 2 mg/kg or 10 mg/kg IP QD for three days) was “sufficient concentrations in whole blood” and the “Formula II Concentrations … Mean” value ([1]; 10 mg/kg IP QD × 3 days, Day 1, 1.00 hrs) was 657 ng/mL. For the same molecule, the “Formula II Concentrations … individual animals” value ([1]; 10 mg/kg IP QD × 3 days, Day 1, 1.00 hrs, animals 10, 11, 12) was 560 ng/mL and 641 ng/mL and 769 ng/mL, the “Formula II Concentrations … Mean” value ([1]; 10 mg/kg IP QD × 3 days, Day 1, 2.00 hrs) was 722 ng/mL and the “Formula II Concentrations … individual animals” value ([1]; 10 mg/kg IP QD × 3 days, Day 1, 2.00 hrs, animals 10, 11, 12) was 793 ng/mL and 869 ng/mL and 503 ng/mL. The “Formula II Concentrations … Mean” value ([1]; 10 mg/kg IP QD × 3 days, Day 1, 6.00 hrs) was 1165 ng/mL, the “Formula II Concentrations … individual animals” value ([1]; 10 mg/kg IP QD × 3 days, Day 1, 6.00 hrs, animals 10, 11, 12) was 1000 ng/mL and 1950 ng/mL and 544 ng/mL and the “Formula II Concentrations … Mean” value ([1]; 10 mg/kg IP QD × 3 days, Day 1, 24.0 hrs) was 204 ng/mL. The “Formula II Concentrations … individual animals” value ([1]; 10 mg/kg IP QD × 3 days, Day 1, 24.0 hrs, animals 10, 11, 12) was 222 ng/mL and 181 ng/mL and 210 ng/mL, the “Formula II Concentrations … Mean” value ([1]; 10 mg/kg IP QD × 3 days, Day 2, 1.00 hrs) was 2309 ng/mL and the “Formula II Concentrations … individual animals” value ([1]; 10 mg/kg IP QD × 3 days, Day 2, 1.00 hrs, animals 10, 11, 12) was 3410 ng/mL and 2970 ng/mL and 546 ng/mL. For the same molecule, the “Formula II Concentrations … Mean” value ([1]; 10 mg/kg IP QD × 3 days, Day 2, 2.00 hrs) was 3323 ng/mL, the “Formula II Concentrations … individual animals” value ([1]; 10 mg/kg IP QD × 3 days, Day 2, 2.00 hrs, animals 10, 11, 12) was 3670 ng/mL and 3930 ng/mL and 2370 ng/mL and the “Formula II Concentrations … Mean” value ([1]; 10 mg/kg IP QD × 3 days, Day 2, 6.00 hrs) was 2256 ng/mL. The “Formula II Concentrations … individual animals” value ([1]; 10 mg/kg IP QD × 3 days, Day 2, 6.00 hrs, animals 10, 11, 12) was 2770 ng/mL and 3390 ng/mL and 609 ng/mL, the “Formula II Concentrations … Mean” value ([1]; 10 mg/kg IP QD × 3 days, Day 2, 24.0 hrs) was 179 ng/mL and the “Formula II Concentrations … individual animals” value ([1]; 10 mg/kg IP QD × 3 days, Day 2, 24.0 hrs, animals 10, 11, 12) was 123 ng/mL and 336 ng/mL and 78.0 ng/mL. The “Formula II Concentrations … Mean” value ([1]; 10 mg/kg IP QD × 3 days, Day 3, 1.00 hrs) was 2204 ng/mL, the “Formula II Concentrations … individual animals” value ([1]; 10 mg/kg IP QD × 3 days, Day 3, 1.00 hrs, animals 10, 11, 12) was “AQL and 3420 ng/mL and 987 ng/mL” and the “Formula II Concentrations … Mean” value ([1]; 10 mg/kg IP QD × 3 days, Day 3, 2.00 hrs) was 3199 ng/mL. For the same molecule, the “Formula II Concentrations … individual animals” value ([1]; 10 mg/kg IP QD × 3 days, Day 3, 2.00 hrs, animals 10, 11, 12) was 5170 ng/mL and 3650 ng/mL and 777 ng/mL, the “Formula II Concentrations … Mean” value ([1]; 10 mg/kg IP QD × 3 days, Day 3, 6.00 hrs) was 2317 ng/mL and the “Formula II Concentrations … individual animals” value ([1]; 10 mg/kg IP QD × 3 days, Day 3, 6.00 hrs, animals 10, 11, 12) was 3330 ng/mL and 2890 ng/mL and 730 ng/mL. For the same molecule, the “Formula II Concentrations … Mean” value ([1]; 10 mg/kg IP QD × 3 days, Day 3, 24.0 hrs) was 223 ng/mL, the “Formula II Concentrations … individual animals” value ([1]; 10 mg/kg IP QD × 3 days, Day 3, 24.0 hrs, animals 10, 11, 12) was 223 ng/mL and 323 ng/mL and 124 ng/mL and the “approximate mean concentration in whole blood” value ([1]; about 2 mg/kg) was 383 to 651 ng/mL. The “approximate mean concentration in whole blood” value ([1]; about 10 mg/kg) was 657 to 3323 ng/mL, the concentration at 24 h ([1]; mouse, whole blood, intraperitoneal, 2 mg/kg, 2 mg/kg IP QD × 3 days, Day 1, 24.0 hrs, animals 7, 8, 9, read-out: Formula II Concentrations in Mouse Whole Blood, individual animals) was 12.2 ng/mL and the concentration at 24 h ([1]; mouse, whole blood, intraperitoneal, 2 mg/kg, 2 mg/kg IP QD × 3 days, Day 1, 24.0 hrs, read-out: Formula II Concentrations in Mouse Whole Blood, Mean) was 15.1 ng/mL. For the same molecule, the concentration at 1 h ([1]; mouse, whole blood, intraperitoneal, 2 mg/kg, 2 mg/kg IP QD × 3 days, Day 2, 1.00 hrs, read-out: Formula II Concentrations in Mouse Whole Blood, Mean) was 404 ng/mL, the concentration at 2 h ([1]; mouse, whole blood, intraperitoneal, 2 mg/kg, 2 mg/kg IP QD × 3 days, Day 2, 2.00 hrs, read-out: Formula II Concentrations in Mouse Whole Blood, Mean) was 435 ng/mL and the concentration at 6 h ([1]; mouse, whole blood, intraperitoneal, 2 mg/kg, 2 mg/kg IP QD × 3 days, Day 2, 6.00 hrs, animals 7, 8, 9, read-out: Formula II Concentrations in Mouse Whole Blood, individual animals) was 553 ng/mL. It also gave a concentration at 6 h ([1]; mouse, whole blood, intraperitoneal, 2 mg/kg, 2 mg/kg IP QD × 3 days, Day 2, 6.00 hrs, read-out: Formula II Concentrations in Mouse Whole Blood, Mean) of 579 ng/mL, a concentration at 24 h ([1]; mouse, whole blood, intraperitoneal, 2 mg/kg, 2 mg/kg IP QD × 3 days, Day 2, 24.0 hrs, read-out: Formula II Concentrations in Mouse Whole Blood, Mean) of 43.7 ng/mL and a concentration at 1 h ([1]; mouse, whole blood, intraperitoneal, 2 mg/kg, 2 mg/kg IP QD × 3 days, Day 3, 1.00 hrs, animals 7, 8, 9, read-out: Formula II Concentrations in Mouse Whole Blood, individual animals) of 628 ng/mL. The concentration at 24 h ([1]; mouse, whole blood, intraperitoneal, 2 mg/kg, about 2 mg/kg, at about 24 hours following administration, read-out: approximate mean concentration in whole blood) was 15 to 43.7 ng/mL, the concentration at 24 h ([1]; mouse, whole blood, intraperitoneal, 10 mg/kg, about 10 mg/kg, at about 24 hours following administration, read-out: approximate mean concentration in whole blood) was 21 to 138 ng/mL and the EC50 ([2]; Homo sapiens, RKOE6, read-out: Cell Count EC50) was 1.13 nM. For the same molecule, the GI50 ([2]; Homo sapiens, RKOE6, read-out: Cell Count GI50) was 5.57 nM, the IC50 ([2]; Homo sapiens, RKOE6, read-out: Cell Count IC50) was 14.2 nM and the “Cell Count Activity Area” value ([2]; RKOE6) was 3.66. For the same molecule, the “Relative cell count (%) Mean” value ([2]; RKOE6, 1.00E+00 microM) was 40.1%, the “Relative cell count (%) Mean” value ([2]; RKOE6, 1.00E-01 microM) was 43.1% and the “Relative cell count (%) Mean” value ([2]; RKOE6, 1.00E-02 microM) was 52.2%. For the same molecule, the “Relative cell count (%) Mean” value ([2]; RKOE6, 1.00E-03 microM) was 64.1%, the “Relative cell count (%) Mean” value ([2]; RKOE6, 1.01E-04 microM) was 94.2% and the “Relative cell count (%) Mean” value ([2]; RKOE6, 3.16E-01 microM) was 43.1%. The “Relative cell count (%) Mean” value ([2]; RKOE6, 3.17E-02 microM) was 49.1%, the “Relative cell count (%) Mean” value ([2]; RKOE6, 3.17E-03 microM) was 65.3% and the “Relative cell count (%) Mean” value ([2]; RKOE6, 3.18E-04 microM) was 84.4%. For the same molecule, the “Relative cell count (%) Mean” value ([2]; RKOE6, 3.18E-05 microM) was 98.6%.
